This is an account of results in patent US8105993B2, “Process compositions and production of acyl alkylisethionate compositions” (Huntsman Petrochemical LLC, priority 2006, dated 2012).

One data set deals with Zein. Nature of the data set: Zein irritation score (in vitro mildness). Conditions: the lower the score, the more mild. On the procedure:
To evaluate the mildness of the products of the present invention, Zein scores were determined for a variety of sulfate and isethionate surfactants and their scores are reported in Table III:
The lower the Zein score, the more mild the composition.

The nature of data set [1]: Foaming test, one-liter capped rotating measuring cylinder foam machine. Type of data set: physicochemical. Conditions: FIGS. 1A and 1B; 0.5% active of surfactant; compared with SLES or SLS based cleansers. As for the experimental part: Foaming tests were performed using a one-liter capped rotating measuring cylinder foam machine at a rate of 30 revolutions per minute and ambient temperature ranging from about 20° C. to about 22° C. and at a concentration of 0.5% of total surfactants. Foam heights in the graduated cylinder were measured at the start and at 10 minutes of rotation. The results are shown below in Table I:
A second foaming test was performed using the same parameters as above, but a stripped coco fatty acid chain SCMI was tested in place of a whole coco fatty acid chain SCMI.

The conditions of data set [2]: levels of 10% by weight; cited from earlier work.

As to Sodium Cocoyl Ethyl Isethionate, the “Zein Score” value with Zein turned out to be 104 mg N/100 ml solution.
The same measure, in the same setting: next, Sodium Lauroyl Ethyl Isethionate: 187 mg N/100 ml solution; `CCCCCCCCCCCCOS(=O)(=O)[O-].[Na+]` [Sodium Lauryl Sulfate, sodium lauryl sulfate, reference compound]: 527 mg N/100 ml solution.
Consider sodium cocoyl methyl isethionate, for which the foam appearance entry in data set [1] is “tighter and creamier”. In addition, in the data set with Zein, the “Zein Score” value came to 147 mg N/100 ml solution.
`CCCCCCCCCCCC(=O)OC(C)CS(=O)(=O)[O-].[Na+]` (centres unmarked) [Sodium Lauroyl Methyl Isethionate]: the “Zein Score” value in the data set on Zein worked out at 134 mg N/100 ml solution.
For the compound “sodium cocoyl isethionate [reference compound]”, the “Zein Score” value in the data set on Zein was determined as 254 mg N/100 ml solution. For the same compound, the “skin and eye irritancy” value in data set [2] is “non-skin irritant and eye irritant”.
